Results from patent US10435399B2, “HDAC6 inhibitory heterocyclic compound” (TAKEDA PHARMACEUTICAL COMPANY LIMITED, priority 2017, dated 2019).

molecular target: T1, HDAC6 enzyme (Homo sapiens, UniProt Q9UBN7); assay: HDAC6 enzyme inhibitory activity (HDAC-Glo I/II Assay kit); format: biochemical; conditions: 10 μM; wells without enzyme = 100% inhibition; read-out: HDAC6 inhibitory rate (%) (10 μM)
T1 construct: transducing full length HDAC6 gene into Sf-9 insect cells; GST; purchased SignalChem; host or cells: Sf-9 insect cells
T1 sequence (Q9UBN7 1-1215): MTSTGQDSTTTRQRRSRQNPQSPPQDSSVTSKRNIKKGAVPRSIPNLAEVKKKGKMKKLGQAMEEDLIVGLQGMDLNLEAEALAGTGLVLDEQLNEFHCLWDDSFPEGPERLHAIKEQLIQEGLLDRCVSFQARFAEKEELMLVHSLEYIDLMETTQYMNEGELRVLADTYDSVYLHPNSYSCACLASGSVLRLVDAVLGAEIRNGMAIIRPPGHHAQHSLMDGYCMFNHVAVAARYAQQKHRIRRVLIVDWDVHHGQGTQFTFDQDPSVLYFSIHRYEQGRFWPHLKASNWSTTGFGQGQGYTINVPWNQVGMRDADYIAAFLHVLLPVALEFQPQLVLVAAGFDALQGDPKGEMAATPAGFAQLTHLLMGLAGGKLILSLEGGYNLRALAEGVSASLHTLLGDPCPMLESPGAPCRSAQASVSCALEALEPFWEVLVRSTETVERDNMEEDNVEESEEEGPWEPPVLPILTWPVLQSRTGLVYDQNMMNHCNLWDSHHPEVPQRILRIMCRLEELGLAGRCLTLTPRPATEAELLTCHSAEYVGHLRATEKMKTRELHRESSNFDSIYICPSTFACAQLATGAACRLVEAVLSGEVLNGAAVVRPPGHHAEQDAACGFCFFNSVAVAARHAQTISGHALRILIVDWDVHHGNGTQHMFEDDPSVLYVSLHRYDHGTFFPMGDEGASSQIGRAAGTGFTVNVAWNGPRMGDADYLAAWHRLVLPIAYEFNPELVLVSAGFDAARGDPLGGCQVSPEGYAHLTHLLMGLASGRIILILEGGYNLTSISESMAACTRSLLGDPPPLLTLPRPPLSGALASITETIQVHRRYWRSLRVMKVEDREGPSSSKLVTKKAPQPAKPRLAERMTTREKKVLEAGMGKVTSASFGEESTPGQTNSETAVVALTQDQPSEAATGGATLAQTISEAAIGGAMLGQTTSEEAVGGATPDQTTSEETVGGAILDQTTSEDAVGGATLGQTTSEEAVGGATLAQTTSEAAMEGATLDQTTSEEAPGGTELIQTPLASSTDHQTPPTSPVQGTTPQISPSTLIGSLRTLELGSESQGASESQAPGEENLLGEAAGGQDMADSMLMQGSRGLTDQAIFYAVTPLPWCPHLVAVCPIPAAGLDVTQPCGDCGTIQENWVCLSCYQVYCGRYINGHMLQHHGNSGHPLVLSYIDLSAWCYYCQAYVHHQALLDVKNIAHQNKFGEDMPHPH
Summary of the method: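 Luminescent HDAC-Glo I/II readout after 20 min room-temperature reaction with substrate-developer, following 60 min compound–enzyme preincubation. Enzyme: full-length HDAC6 from Sf-9 cells, GST-purified; buffer 24 mM Tris-HCl pH 7.5, 0.01% Tween-20, glutathione, salts. Wells lacking enzyme define 100% inhibition.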

Row | SMILES | inhibition at 10 µM [%]
1 | Cn1cc(-c2cncc(F)c2)c(N2Cc3ccc(-c4nnc(C(F)F)o4)cc3C2=O)n1 [Example 459, 6-(5-(difluoro-methyl)-1,3,4-oxadiazol-2-yl)-2-(4-(5-fluoro-pyridin-3-yl)-1-methyl-1H-pyrazol-3-yl) isoindolin-1-one] | 97
2 | Cn1cc(-c2ccccc2F)c(N2Cc3ccc(-c4nnc(C(F)F)o4)cc3C2=O)n1 [Example 460, 6-(5-(difluoro-methyl)-1,3,4-oxadiazol-2-yl)-2-(4-(2-fluoro-phenyl)-1-methyl-1H-pyrazol-3-yl) isoindolin-1-one] | 102
3 | CCC(=O)N[C@@H]1CCCC[C@H]1N1Cc2ncc(-c3nnc(C(F)F)o3)cc2C1=O [Example 461, N-((1R,2R)-2-(3-(5-(difluoro-methyl)-1,3,4-oxadiazol-2-yl)-5-oxo-5,7-dihydro-6H-pyrrolo[3,4-b]pyridin-6-yl)cyclohexyl) propanamide] | 100
4 | CCCC(=O)N[C@@H]1CCCC[C@H]1N1Cc2ncc(-c3nnc(C(F)F)o3)cc2C1=O [Example 462, N-((1R,2R)-2-(3-(5-(difluoro-methyl)-1,3,4-oxadiazol-2-yl)-5-oxo-5,7-dihydro-6H-pyrrolo[3,4-b]pyridin-6-yl)cyclohexyl) butanamide] | 100
5 | O=C(N[C@@H]1CCCC[C@H]1N1Cc2ncc(-c3nnc(C(F)F)o3)cc2C1=O)C1CC1 [Example 463, N-((1R,2R)-2-(3-(5-(difluoro-methyl)-1,3,4-oxadiazol-2-yl)-5-oxo-5,7-dihydro-6H-pyrrolo[3,4-b]pyridin-6-yl)cyclohexyl) cyclopropane-carboxamide] | 101
6 | O=C(N[C@@H]1CCCC[C@H]1N1Cc2ncc(-c3nnc(C(F)F)o3)cc2C1=O)C1CCC1 [Example 464, N-((1R,2R)-2-(3-(5-(difluoro-methyl)-1,3,4-oxadiazol-2-yl)-5-oxo-5,7-dihydro-6H-pyrrolo[3,4-b]pyridin-6-yl)cyclohexyl) cyclobutane-carboxamide] | 101
7 | O=C1c2cc(-c3nnc(C(F)F)o3)ccc2CN1c1ccc(F)cc1-c1ccn[nH]1 [Example 467, 6-(5-(difluoro-methyl)-1,3,4-oxadiazol-2-yl)-2-(4-fluoro-2-(1H-pyrazol-5-yl)phenyl) isoindolin-1-one] | 101
8 | Cn1cc(-c2cc(F)cc(C#N)c2)c(N2Cc3ccc(-c4nnc(C(F)F)o4)cc3C2=O)n1 [Example 468, 3-(3-(6-(5-(difluoro-methyl)-1,3,4-oxadiazol-2-yl)-1-oxo-1,3-dihydro-2H-isoindol-2-yl)-1-methyl-1H-pyrazol-4-yl)-5-fluoro-benzonitrile] | 100
9 | O=C1c2cc(-c3nnc(C(F)F)o3)ccc2CN1[C@@H]1CCC(F)(F)C[C@H]1NC(=O)C(F)(F)C(F)(F)F [Example 469, N-((1R,2R)-2-(6-(5-(difluoromethyl)-1,3,4-oxadiazol-2-yl)-1-oxo-1,3-dihydro-2H-isoindol-2-yl)-5,5-difluorocyclohexyl)-2,2,3,3,3-pentafluoropropanamide] | 99
10 | CC(F)(F)C(=O)N[C@@H]1CC(F)(F)CC[C@H]1N1Cc2ccc(-c3nnc(C(F)F)o3)cc2C1=O [Example 470, N-((1R,2R)-2-(6-(5-(difluoromethyl)-1,3,4-oxadiazol-2-yl)-1-oxo-1,3-dihydro-2H-isoindol-2-yl)-5,5-difluorocyclohexyl)-2,2-difluoropropanamide] | 101
11 | Cn1cc(-c2cc(F)nc(F)c2)c(N2Cc3ccc(-c4nnc(C(F)F)o4)cc3C2=O)n1 [Example 471, 6-(5-(difluoro-methyl)-1,3,4-oxadiazol-2-yl)-2-(4-(2,6-difluoro-pyridin-4-yl)-1-methyl-1H-pyrazol-3-yl) isoindolin-1-one] | 100
12 | O=C1c2cc(-c3nnc(C(F)F)o3)ccc2CN1c1ccnn1-c1cccc(Cl)c1 [Example 472, 2-(1-(3-chloro-phenyl)-1H-pyrazol-5-yl)-6-(5-(difluoro-methyl)-1,3,4-oxadiazol-2-yl) isoindolin-1-one] | 100
13 | O=C1c2cc(-c3nnc(C(F)F)o3)ccc2CN1c1ccnn1-c1ccc(F)cc1 [Example 473, 6-(5-(difluoro-methyl)-1,3,4-oxadiazol-2-yl)-2-(1-(4-fluoro-phenyl)-1H-pyrazol-5-yl) isoindolin-1-one] | 99
14 | Cn1cc(C2=CCC(F)(F)CC2)c(N2Cc3ccc(-c4nnc(C(F)F)o4)cc3C2=O)n1 [Example 474, 2-(4-(4,4-difluorocyclo-hex-1-en-1-yl)-1-methyl-1H-pyrazol-3-yl)-6-(5-(difluoro-methyl)-1,3,4-oxadiazol-2-yl) isoindolin-1-one] | 99
15 | COc1ccc(N2Cc3ccc(-c4nnc(C(F)F)o4)cc3C2=O)c(Br)c1 [Example 477, 2-(2-bromo-4-methoxy-phenyl)-6-(5-(difluoro-methyl)-1,3,4-oxadiazol-2-yl) isoindolin-1-one] | 95
16 | Cn1cc(C2CCC(F)(F)CC2)c(N2Cc3ccc(-c4nnc(C(F)F)o4)cc3C2=O)n1 [Example 480, 2-(4-(4,4-difluorocyclo-hexyl)-1-methyl-1H-pyrazol-3-yl)-6-(5-(difluoro-methyl)-1,3,4-oxadiazol-2-yl) isoindolin-1-one] | 101

Results, then the molecule that gave them:

Row | inhibition at 10 µM [%] | SMILES
17 | 100 | CCOc1ccccc1CN1Cc2ncc(-c3nnc(C(F)F)o3)cc2C1=O [Example 456, 3-(5-(difluoro-methyl)-1,3,4-oxadiazol-2-yl)-6-(2-ethoxy-benzyl)-6,7-dihydro-5H-pyrrolo[3,4-b] pyridin-5-one]
18 | 97 | O=C1c2cc(-c3nnc(C(F)F)o3)cnc2CN1Cc1cc2ccccn2n1 [Example 457, 3-(5-(difluoro-methyl)-1,3,4-oxadiazol-2-yl)-6-(pyrazolo [1,5-a]pyridin-2-ylmethyl)-6,7-dihydro-5H-pyrrolo [3,4-b] pyridin-5-one]
19 | 100 | O=C1c2cc(-c3nnc(C(F)F)o3)cnc2CN1Cc1cnn2ccccc12 [Example 458, 3-(5-(difluoro-methyl)-1,3,4-oxadiazol-2-yl)-6-(pyrazolo [1,5-a]pyridin-3-ylmethyl)-6,7-dihydro-5H-pyrrolo [3,4-b] pyridin-5-one]
20 | 99 | O=C(N[C@@H]1CCCC[C@H]1N1Cc2ncc(-c3nnc(C(F)F)o3)cc2C1=O)c1ccccc1 [Example 465, N-((1R,2R)-2-(3-(5-(difluoro-methyl)-1,3,4-oxadiazol-2-yl)-5-oxo-5,7-dihydro-6H-pyrrolo[3,4-b]pyridin-6-yl)cyclohexyl) benzamide]
21 | 100 | O=C(Cc1ccccc1)N[C@@H]1CCCC[C@H]1N1Cc2ncc(-c3nnc(C(F)F)o3)cc2C1=O [Example 466, N-((1R,2R)-2-(3-(5-(difluoro-methyl)-1,3,4-oxadiazol-2-yl)-5-oxo-5,7-dihydro-6H-pyrrolo[3,4-b]pyridin-6-yl)cyclohexyl)-2-phenyl-acetamide]
22 | 100 | C[C@@H](c1ccccc1)N1Cc2ncc(-c3nnc(C(F)F)o3)cc2C1=O [Example 475, 3-(5-(difluoro-methyl)-1,3,4-oxadiazol-2-yl)-6-((1S)-1-phenylethyl)-6,7-dihydro-5H-pyrrolo [3,4-b]pyridin-5-one]
23 | 100 | C[C@H](c1ccccc1)N1Cc2ncc(-c3nnc(C(F)F)o3)cc2C1=O [Example 476, 3-(5-(difluoro-methyl)-1,3,4-oxadiazol-2-yl)-6-((1R)-1-phenylethyl)-6,7-dihydro-5H-pyrrolo [3,4-b]pyridin-5-one]
24 | 100 | O=C1c2cc(-c3nnc(C(F)F)o3)cnc2CN1Cc1ccccc1OCC(F)F [Example 478, 6-(2-(2,2-difluoroethoxy)benzyl)-3-(5-(difluoro-methyl)-1,3,4-oxadiazol-2-yl)-6,7-dihydro-5H-pyrrolo [3,4-b]pyridin-5-one]
25 | 100 | O=C1c2cc(-c3nnc(C(F)F)o3)cnc2CN1Cc1cccc(-c2cnn(C(F)F)c2)c1 [Example 479, 3-(5-(difluoro-methyl)-1,3,4-oxadiazol-2-yl)-6-(3-(1-(difluoro-methyl)-1H-pyrazol-4-yl)benzyl)-6,7-dihydro-5H-pyrrolo[3,4-b] pyridin-5-one]
